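Tested at 5 concentrations; 48 h exposure; 96-well plates; endpoints linearly interpolated, else capped at highest concentration. The concentration for full growth arrest is given as TGI.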
Experiments:
Assay in all cases: DTP human tumour cell line panel, 48 h
[1] = tested on: OVCAR-3 ovarian
[2] = tested on: HCT-15 colon
[3] = tested on: NCI/ADR-RES ovarian
[4] = tested on: UACC-62 melanoma
[5] = tested on: HT29 colon
[6] = tested on: OVCAR-8 ovarian
[7] = tested on: COLO 205 colon
[8] = tested on: MDA-MB-435
[9] = tested on: T-47D breast
[10] = tested on: A549 NSCLC
[11] = tested on: IGROV1 ovarian
[12] = tested on: CAKI-1 renal
[13] = tested on: SF-295 CNS
[14] = tested on: MDA-MB-231 breast
[15] = tested on: SK-MEL-5 melanoma
[16] = tested on: HOP-62 NSCLC
[17] = tested on: SR leukemia
[18] = tested on: M14 melanoma
[19] = tested on: MDA-N
[20] = tested on: SNB-19 CNS
[21] = tested on: SK-MEL-28 melanoma
[22] = tested on: UACC-257 melanoma
[23] = tested on: NCI-H460 lung
[24] = tested on: SN12C renal
[25] = tested on: SF-539 CNS
[26] = tested on: MOLT-4 leukemia
[27] = tested on: HOP-92 NSCLC
[28] = tested on: TK-10 renal
[29] = tested on: NCI-H522 lung
[30] = tested on: PC-3 prostate
[31] = tested on: RXF 393 renal
[32] = tested on: KM12 colon
[33] = tested on: ACHN renal
[34] = tested on: SK-MEL-2 melanoma
[35] = tested on: EKVX NSCLC
[36] = tested on: SW-620 colon
[37] = tested on: HS 578T breast
[38] = tested on: DU-145 prostate
[39] = tested on: RPMI-8226 leukemia
[40] = tested on: NCI-H23 lung
[41] = tested on: HCT-116 colon
[42] = tested on: U251 CNS
[43] = tested on: OVCAR-5 ovarian
[44] = tested on: MALME-3M melanoma
[45] = tested on: SK-OV-3 ovarian
[46] = tested on: MCF7 breast
[47] = tested on: OVCAR-4 ovarian
[48] = tested on: UO-31 renal
[49] = tested on: BT-549 breast
[50] = tested on: SF-268 CNS
[51] = tested on: HL-60(TB) leukemia
[52] = tested on: 786-0 renal
[53] = tested on: K-562 leukemia
[54] = tested on: LOX IMVI melanoma
[55] = tested on: CCRF-CEM leukemia
[56] = tested on: A498 renal

## COC(=O)c1cc(C)n(CN(Cn2nc(C(=O)OC)cc2C)c2ccccc2)n1
[1]
  TGI: > 100 µM
[2]
  TGI: 47.2 µM
[3]
  TGI: 94.7 µM
[4]
  TGI: 88 µM
[5]
  TGI: 36 µM
[6]
  TGI: 47.9 µM
[7]
  TGI: 32 µM
[8]
  TGI: > 100 µM
[9]
  TGI: 88.3 µM
[10]
  TGI: > 100 µM
[11]
  TGI: > 100 µM
[12]
  TGI: > 100 µM
[13]
  TGI: > 100 µM
[14]
  TGI: > 100 µM
[15]
  TGI: > 100 µM
[16]
  TGI: > 100 µM
[17]
  TGI: 25.5 µM
[18]
  TGI: > 100 µM
[19]
  TGI: > 100 µM
[20]
  TGI: > 100 µM
[21]
  TGI: > 100 µM
[22]
  TGI: > 100 µM
[23]
  TGI: > 100 µM
[24]
  TGI: > 100 µM
[25]
  TGI: 36.3 µM
[26]
  TGI: 33.4 µM
[27]
  TGI: > 100 µM
[28]
  TGI: > 100 µM
[29]
  TGI: > 100 µM
[30]
  TGI: > 100 µM
[31]
  TGI: 44.4 µM
[32]
  TGI: > 100 µM
[33]
  TGI: 44.6 µM
[34]
  TGI: > 100 µM
[35]
  TGI: > 100 µM
[36]
  TGI: > 100 µM
[37]
  TGI: > 100 µM
[38]
  TGI: > 100 µM
[39]
  TGI: 44.6 µM
[40]
  TGI: 69.6 µM
[41]
  TGI: 40.9 µM
[42]
  TGI: > 100 µM
[43]
  TGI: > 100 µM
[44]
  TGI: > 100 µM
[45]
  TGI: > 100 µM
[46]
  TGI: 93.5 µM
[47]
  TGI: > 100 µM
[48]
  TGI: 55.2 µM
[49]
  TGI: > 100 µM
[50]
  TGI: > 100 µM
[51]
  TGI: 47.5 µM
[52]
  TGI: 61 µM
[53]
  TGI: 60.4 µM
[54]
  TGI: 42.3 µM
[55]
  TGI: 54.2 µM
[56]
  TGI: > 100 µM
